Earlier results in PMC7905424 (Biochemistry. Biokhimiia, 2021).
pKd: −log10 of the molar value. Like-named read-outs stand apart in the source and are kept apart here.

Assays:
[1] = tested on: pro-inflammatory cytokine IL-6; details: COVID-19 patients

Row | Substance | content of the pro-inflammatory cytokine IL-6 [1] | pKd (SARS-CoV-2 S protein; read-out: Kd for ACE2, lower end of literature range) | pKd (SARS-CoV-2 S protein; read-out: Kd for ACE2, upper end of literature range)
1 | low-molecular-weight heparin | pronounced decrease | – | –
2 | ACE2 | – | 8.92 | 7.02
